# Results reported in patent EP0364941A1, “Branched-chain alkyl esters of 2-(4-(2-piperidino ethoxy)benzoyl)benzoic acid, processes for their preparation and their use as spasmolytic agents” (HOECHST AKTIENGESELLSCHAFT, priority 1988, dated 1990).
# Tests used:
# small intestine [1] = test: Motility of the small intestine in the conscious dog; format: in vivo; settings: for Area under the contraction curve, Postdrug 10 min: 10 min postdrug; for Area under the contraction curve, Postdrug 10 min / Area under the contraction curve, Postdrug 20 min / Area under the contraction curve, Postdrug 30 min / Area under the contraction curve, Postdrug 40 min / Area under the contraction curve, Postdrug 50 min / Area under the contraction curve, Postdrug 60 min / Area under the contraction curve, Predrug -20 - 0: phase I and II; for Area under the contraction curve, Postdrug 20 min: 20 min postdrug; for Area under the contraction curve, Postdrug 30 min: 30 min postdrug; for Area under the contraction curve, Postdrug 40 min: 40 min postdrug; for Area under the contraction curve, Postdrug 50 min: 50 min postdrug; for Area under the contraction curve, Postdrug 60 min: 60 min postdrug; for Inhibition Maximal / Inhibition Mean / ED50: phase I+II activity; for Area under the contraction curve, Predrug -20 - 0: predrug baseline -20 - 0 min; for Duration of action: when postdrug values reached 90 % or more of predrug values; for ED50: Canis lupus familiaris, iv
# Excerpt: Male dogs (THG Tierhandelsgesellschaft Rodenbach, Hoe:BEAK (Beagle)) weighing 15 - 20 kg were used in all experiments. At least 4 weeks prior to the experiment the dogs had been equipped with miniaturized strain gage force transducers (T1-T3) (2x4 mm), sutured onto the gut at the locations mentioned below. The cables of the transducers were embedded into a cannula which carried the plug for external electric connection. This stainless steel cannula was implanted into the abdominal wall, close below the costal arch. Each transducer was connected to a measuring bridge. The signals were on line stored using a HP 9835 A computer, allowing later analysis of the data. • T1 : Proximal jejunum • T2 : Distal jejunum • T3 : Ileum
# (§1) 18 hours prior to the experiment food was withdrawn from the animals, water ad libidum. All experiments started between 08:00 and 09:00 am.
# The following motility parameters were determined: The integral under the […] at 10 min intervals (mNx10min) as an index of phase I + II activity. The duration of drug action (min.) The duration of the interdigestive migrating complex (IMC) (min) as a measure of phase III activity.
# Test Compound II was given at doses of 0.2 and 0.5 mg/kg i.v. or 5 mg/kg i.g., dissolved in saline, in a volume of 1 ml/kg (i.v.) or 2 ml/kg (i.g.), n = 3 - 6. Control n = 26.
# Buscopan was given at doses of 0.3 and 1 mg/kg i.v., dissolved in saline, in a volume of 1 ml/kg, n = 4 - 6. Pitofenone was given at doses of 1 mg/kg i.v., dissolved in saline, in a volume of 1 ml/kg, n = 8.
# ID₅₀-values were determined graphically.
# small intestine [2] = test: Antispasmodic activity in anaesthetized dog (carbachol or acetylcholine induced intestinal contractions); format: in vivo; settings: anaesthetised dog
# Procedure: Male mongrel dogs of weight range 10 to 15 kg were anaesthetised with pentobarbitone sodium (35 mg/ kg,i.v.). Slow i.v. infusion of pentobarbitone (5 mg/kg/hour) was given for maintenance anaesthesia. The endotracheal tube was inserted to facilitate spontaneous breathing. Both femoral artery and vein were cannulated respectively for recording blood pressure and administering drugs. After laparotomy, a small portion of small intestine distal to duodenum was isolated and saline filled balloon inserted and the opening was sutured. A fine polyethylene cannula was then inserted into the mesenteric artery which supplies to the area of intestine containing balloon for injection of carbachol or acetylcholine. A Statham pressure transducer was then attached to balloon cannula for recording both circular and longitudinal muscle contractions. All the parameters were recorded on 4 channel Nihon-Kohden recorder. The intestinal contractions were recorded after administering a standard dose of carbachol or acetylcholine (0.5 to 3 µg). Test compounds I and II were given at different doses 3,10 and 20 mg/kg intra-duodenally and spasmolytic activity was assessed at various time intervals. Anti-spasmodic activity was assessed by calculating percent reduction in agonist induced contractions and also noting onset and duration of activity. The test compounds were dissolved in distilled water (1% soln.). Table 3 Test compounds I and II were given at different doses (10, 30, 100, 300 and 1000 µg/kg) intravenously and spasmolytic activity was assessed at different time intervals. Anti-spasmodic activity was assessed by calculating percent reduction in agonist induced contractions. The ID₅₀ value was calculated from the dose response curve.
# large Bowel = test: Motility of the large bowel (colonic motor complex) in conscious dogs; format: in vivo
# Excerpt: Male dogs (THG Tierhandelsgesellschaft Rodenbach, Hoe:BEAK (Beagle)) weighing 15 - 20 kg were used in all experiments.
# At least 4 weeks prior the experiment the dogs had been equipped with miniaturised strain gage force transducers (T1-T2) (2x4mm), sutured onto the gut at the locations mentioned below. The cables of the transducers were embedded into a cannula which carried the plug for external electric connection. This stainless steel cannula was implanted into the abdominal wall, close below the costal arch. Each transducer was connected to a measuring bridge. The signals were on line stored using a HP 9835 A computer, allowing later analysis of the data. • T1 : Colon ascendens 10 cm aborafrom the ileoceval valve (ICV) • T2 : Colon transversum 25 cm aborad from the ICV
# as §1
# The following parameters were determined: The duration of the cycle (min) The duration of the colonic motor complex (CMC) (min) The maximal height of the concentrations (AU: arbitrary units)
# Data from the two recording sites (T1-T2) were pooled. […]
# For detection of significant differences (p < 0.05) the unpaired t-test was used. Only significant differences were indicated by *.
# [3] = test system: isolated guinea pig ileum; test: Antispasmodic activity in isolated guinea pig ileum (acetylcholine-induced contraction); format: cell-based
# Procedure: Small intestines obtained from freshly sacrificed guinea pigs (weight range, 200 - 400 g) of either sex were cleaned and stored in tyrode solution. A piece of ileum was mounted in an organ bath containing tyrode solution at 37°C and maintained at a tension of 0.5 to 1.0 g. The solution was continuously aerated with compressed air. After an initial equilibration period, a sub-maximal dose of acetylcholine required for measurable contraction was standardised. Tension changes were monitored using an isotonic strain gauge attached to the tissue and the responses were recorded on a strip chart recorder. Antispasmodic activity of test compounds at different concentrations was followed and the IC₅₀ values were calculated from dose response curves.
compound,measurement,setting,value
"CC(C)OC(=O)c1ccccc1C(=O)c1ccc(OCCN2CCCCC2)cc1.Cl [Test Compound II, Isopropyl-2-[4-(2-piperidino-ethoxy)-benzoyl]-benzoate hydrochloride]","Area under the contraction curve, Postdrug 10 min",small intestine [1]; 0.2 mg/kg i.v.,1.54 mN x 10 min
same,"Area under the contraction curve, Postdrug 20 min",small intestine [1]; 0.2 mg/kg i.v.,1.42 mN x 10 min
same,"Area under the contraction curve, Postdrug 30 min",small intestine [1]; 0.2 mg/kg i.v.,1.88 mN x 10 min
same,"Area under the contraction curve, Postdrug 40 min",small intestine [1]; 0.2 mg/kg i.v.,1.77 mN x 10 min
same,"Area under the contraction curve, Postdrug 50 min",small intestine [1]; 0.2 mg/kg i.v.,1.78 mN x 10 min
same,"Area under the contraction curve, Postdrug 60 min",small intestine [1]; 0.2 mg/kg i.v.,2.19 mN x 10 min
same,Inhibition Maximal,small intestine [1]; 0.2 mg/kg i.v.,34%
same,Inhibition Mean,small intestine [1]; 0.2 mg/kg i.v.,22 ± 4%
same,"Area under the contraction curve, Predrug -20 - 0",small intestine [1]; 0.2 mg/kg i.v.,2.15 mN x 10 min
same,Duration of action,small intestine [1]; 0.2 mg/kg i.v.,50 min
same,duration of inhibitory effect,"small intestine [1]; 0.5 mg/kg i.v., conscious dog",approximately one
same,"Area under the contraction curve, Postdrug 10 min",small intestine [1]; 0.5 mg/kg i.v.,0.54 mN x 10 min
same,"Area under the contraction curve, Postdrug 20 min",small intestine [1]; 0.5 mg/kg i.v.,0.50 mN x 10 min
same,"Area under the contraction curve, Postdrug 30 min",small intestine [1]; 0.5 mg/kg i.v.,0.99 mN x 10 min
same,"Area under the contraction curve, Postdrug 40 min",small intestine [1]; 0.5 mg/kg i.v.,1.17 mN x 10 min
same,"Area under the contraction curve, Postdrug 50 min",small intestine [1]; 0.5 mg/kg i.v.,1.61 mN x 10 min
same,"Area under the contraction curve, Postdrug 60 min",small intestine [1]; 0.5 mg/kg i.v.,2.46 mN x 10 min
same,Inhibition Maximal,small intestine [1]; 0.5 mg/kg i.v.,81%
same,Inhibition Mean,small intestine [1]; 0.5 mg/kg i.v.,54 ± 11%
same,"Area under the contraction curve, Predrug -20 - 0",small intestine [1]; 0.5 mg/kg i.v.,2.62 mN x 10 min
same,Duration of action,small intestine [1]; 0.5 mg/kg i.v.,60 min
same,Duration of cycles,"small intestine [1]; 5 mg/kg intragastrical, Phase III activity",298 ± 18 min
same,inhibition of phase III activity,"small intestine [1]; 5 mg/kg intragastrically, conscious dog",pronounced inhibition
same,ED50,"small intestine [1]; conscious dog, read-out: intravenous IC₅₀-values determined from maximal inhibition",0.22 mg/kg
same,ED50,"small intestine [1]; determined graphically, read-out: ID₅₀",0.26 mg/kg
same,Duration,small intestine [2]; 3 mg/kg intra-duodenal,35 min
same,On-set,small intestine [2]; 3 mg/kg intra-duodenal,7 min
same,Percent Inhibition,small intestine [2]; 3 mg/kg intra-duodenal,54%
same,Duration,small intestine [2]; 10 mg/kg intra-duodenal,78 min
same,On-set,small intestine [2]; 10 mg/kg intra-duodenal,6.5 min
same,Percent Inhibition,small intestine [2]; 10 mg/kg intra-duodenal,83%
same,ED50,"small intestine [2]; Canis lupus familiaris, iv, read-out: ID₅₀",0.01 mg/kg
same,Duration of action,small intestine [2]; intravenous administration,> 60 min
same,effect on colonic motility,large Bowel; 1 mg/kg i.g.,uneffective
same,Duration CMC,large Bowel; 1 mg/kg intragastrically,6 ± 2 min
same,Duration Cycle,large Bowel; 1 mg/kg intragastrically,28 ± 11 min
same,Max.heigth of CMC,large Bowel; 1 mg/kg intragastrically,50±25 AU
same,Total number of spikes,large Bowel; 1 mg/kg intragastrically,5.6±1.7 n/CMC
same,Duration CMC,large Bowel; 3 mg/kg intragastrically,11 ± 3 min
same,Duration Cycle,large Bowel; 3 mg/kg intragastrically,136 ± 42 min
same,Max.heigth of CMC,large Bowel; 3 mg/kg intragastrically,40±23 AU
same,Total number of spikes,large Bowel; 3 mg/kg intragastrically,5.5±1.0 n/CMC
same,duration of complete inhibition of colonic motility (CMC),large Bowel; 4 mg/kg i.g.,about 2 hours
same,Guinea pig ileum Duration of action,[3],> 7.0 min
same,IC50,"[3]; Cavia porcellus, read-out: Guinea pig ileum IC₅₀",0.01 mg/L
